Common to all, as to format: cell-based, human
Assay [1] relates to MCF-7 breast cancer cells. The assay is described as follows: MTT cell viability assay, MCF-7. Particulars: 5-50 μM, read-out: IC50 (cell viability, MTT). Here is the method:
(§1) MCF-7, MDA-MB-231 (both human breast cancer cell lines), and fibroblast cells were obtained from American Type Culture Collection (ATCC, Manassas, VA, USA). DMEM and FBS used in a cell culture were from Gibco (USA). Glutamine, penicillin, and streptomycin were obtained from Quality Biologicals Inc. (USA). DMEM media was blended with 50 units/ml of penicillin, 50 μg/ml of streptomycin, 10% of FBS. All cell lines were cultured in 5% CO2 and fully humidified at 37 °C. Cells were cultured in Costar flasks and sub-confluent cells were detached with 0.05% trypsin and 0.02% ethylenediaminetetraacetic acid in calcium-free phosphate-buffered saline (PBS), counted in hemocytometers, and plated at 5 × 10^5 cells/well of six-well plates (Thermo Scientific, New York, NY, USA) in 2 ml of growth medium (DMEM without phenol red with 10% CPSR1). Cells reached about 80% of confluency at day 2, and in most cases such cells were used for the assays.
(§2) The viability of cultured cells was decided through assaying the reduction of MTT to formazan. In brief, MCF-7, MDA-MB-231, and fibroblast cells line were seeded at an initial density of 1 × 10^5 cells per well. Then, the cells were incubated at 37 °C for 24 h. Subsequently, cultured cells were treated with a medium containing concentrations (5, 10, 20, 30, 40, and 50 μM) of PtPz1–PtPz6 for 24 h and 48 h. After the incubation period, MTT was added into all wells in the final concentration of 0.5 mg/ml. After that, the cells were incubated at 37 °C for 4 h. Then, by removing the medium, 200 μl of DMSO was added to all wells. As a result, insoluble formazan was dissolved in DMSO (0.5%). At 570 nm (630 nm as a reference), the absorbance was measured in an Evolution 201 reader (Thermo Scientific, Waltham, MA).

Assay [2] concerns MDA-MB-231 breast cancer cells. The assay is described as follows: MTT cell viability assay, MDA-MB-231. Particulars: 5-50 μM, read-out: IC50 (cell viability, MTT). Here is the method:
as §1, §2

The subject of another assay is fibroblast cells. Kind of assay: MTT cell viability assay, fibroblasts. The note with it: 5-50 μM, read-out: IC50 (cell viability, MTT). As for the experimental part: as §1, §2
Assay [3] concerns MCF-7 breast cancer cells. Kind of assay: DNA fragmentation TUNEL assay, MCF-7. The note with it: MCF-7, 20 μM, 24 h; control 4.0%. As for the experimental part:
(§3) DNA fragmentation associated with apoptosis was examined by the terminal deoxynucleotidyltransferase (TdT)- mediated dUTP nick end labeling (TUNEL) method using a commercial assay kit (APO-Direct Kit; BD Pharmingen, San Diego, CA). After treatment, the cells were fixed with 1% paraformaldehyde in PBS (4°C, 30 min), washed in PBS, and permeabilised with ice-cold 70% ethanol. The APO-Direct Kit TUNEL assay was performed as described by the manufacturer. Briefly, the fixed cells were washed twice using the kit wash buffer, and after centrifugation the supernatant was discarded. The DNA labeling solution (containing TdT enzyme and FITC-dUTP) was added to the cell pellet, and the re-suspended mixture was incubated for 1 h at 37°C with occasional shaking. At the end of incubation time, rinse buffer was added, and after centrifugation the supernatant was discarded. We repeated the cell rinsing with rinse buffer, and then suspended the cell pellet in PI/RNase staining buffer. Cells were incubated at room temperature for 30 min and immediately analysed in a BD FACSCanto II flow cytometer. In total, 10,000 events were collected per test sample. The results were analysed with FACSDiva software (both from BD Biosciences Systems, San Jose, CA). The percentage of cells with distinctive apoptotic DNA strand breaks and distinguished by green fluorescent emission was calculated.

For assay [4], the system named is MDA-MB-231 breast cancer cells. Kind of assay: DNA fragmentation TUNEL assay, MDA-MB-231. Particulars: MDA-MB-231, 20 μM, 24 h. Here is the method: as §3
In assay [5] the test system is caspase-3 in MDA-MB-231 breast cancer cells. The assay is described as follows: FLICA caspase-3 activity, flow cytometry, MDA-MB-231. Particulars: MDA-MB-231, 20 μM, 24 h. Here is the method:
(§4) Caspase-3 activity was measured using the FLICA Caspase 3 Assay Kit (ImmunoChemistry Technologies, Bloomington, MN, USA), according to the manufacturer’s instructions. Briefly, cultured MDA-MB-231 breast cancer cells (1 × 10^6) were washed with cold PBS twice and re-suspended in buffer. We added 5 µl of diluted FLICA reagent and 2 µl of Hoechst 33342 to 93 µl of cell suspension and mixed by pipetting. The cells were incubated for 60 min at 37°C. After incubation, the cells were washed twice in 400 µl of apoptosis wash buffer and centrifuged at 300 × g. After the last wash, we re-suspended the cells in 100 µl of apoptosis wash buffer supplemented with 10 µg/ml PI. Analysis was performed using the BD FACSCanto II flow cytometer, and the results were analysed with FACSDiva software (both from BD Biosciences Systems, San Jose, CA).

For assay [6], the system named is caspase-8 in MCF-7 breast cancer cells. The assay is described as follows: FLICA caspase-8 activity, flow cytometry, MCF-7. Particulars: MCF-7, 20 μM, 24 h. Here is the method:
as §4, with “Caspase-8 activity” for “Caspase-3 activity”, “Caspase 8” for “Caspase 3”, “cultured MCF-7 and” for “cultured”

Assay [7] concerns caspase-8 in MDA-MB-231 breast cancer cells. The assay is described as follows: FLICA caspase-8 activity, flow cytometry, MDA-MB-231. Particulars: MDA-MB-231, 20 μM, 24 h. As for the experimental part: as §4, with “Caspase-8 activity” for “Caspase-3 activity”, “Caspase 8” for “Caspase 3”, “cultured MCF-7 and” for “cultured”
Assay [8] deals with caspase-9 in MCF-7 breast cancer cells. The assay is described as follows: FLICA caspase-9 activity, flow cytometry, MCF-7. The note with it: MCF-7, 20 μM, 24 h. As for the experimental part: as §4, with “Caspase-9 activity” for “Caspase-3 activity”, “Caspase 9” for “Caspase 3”, “cultured MCF-7 and” for “cultured”, “re-suspended” for “re-suspended the”
In assay [9] the test system is caspase-9 in MDA-MB-231 breast cancer cells. Kind of assay: FLICA caspase-9 activity, flow cytometry, MDA-MB-231. Particulars: MDA-MB-231, 20 μM, 24 h. As for the experimental part:
as §4, with “Caspase-9 activity” for “Caspase-3 activity”, “Caspase 9” for “Caspase 3”, “cultured MCF-7 and” for “cultured”, “re-suspended” for “re-suspended the”

Like-named read-outs stand apart in the source and are kept apart here.

Turning to “[Pt2(pyrazole)4(berenil)2]·4HCl·2H2O [PtPz4]”, the 50% inhibitory concentration (IC50) was 32 ± 2 µM in [1] (MCF-7, 24 h incubation); 29 ± 2 µM in assay [1] (MCF-7, 48 h incubation); 33 ± 3 µM in [2] (MDA-MB-231, 24 h incubation); 29 ± 2 µM in [2] (MDA-MB-231, 48 h incubation); more than 50 µM with fibroblast cells (24 h incubation); 46 ± 2 µM in the assay on fibroblast cells (48 h incubation). Further, the “percent of TUNEL positive cells” value came to 29.4% in assay [3] and 22.9% in assay [4]. Further, the “percent of cells with active caspase-3” value in assay [5] is reported as 14.8%. Further, the entries for the “percent of cells with active caspase-8” value in assay [6] and in [7] were 30.9% and 29.5%, respectively. Moreover, the entries for the “percent of cells with active caspase-9” value in assay [8] and in assay [9] were 29.7% and 29.6%, respectively.

The record behind these values is paper PMC6009892, “A novel series of pyrazole-platinum(II) complexes as potential anti-cancer agents that induce cell cycle arrest and apoptosis in breast cancer cells” (Journal of Enzyme Inhibition and Medicinal Chemistry, 2018).
